{
  "source": "patent US11517597B2",
  "about": "“Method for improving skin condition with postbiotic extract” (CHAMBIO CO., LTD., priority 2020, dated 2022)",
  "data": [
    {"test_system": "Hs68 cells", "assay": "TGF-β content of Hs68 cells (ELISA)", "type": "cell-based, Human", "conditions": "24 hours, nutritional component only 100 mg/L", "experimental": "(§1) • 2. Human foreskin fibroblast cell line Hs68 was purchased from the Bioresource Collection and Research Center of the Food Industry Research and Development Institute (BCRC of FIRDI, Taiwan). Hs68 cells were grown in a 10-cm Petri dish containing Dulbecco's Modified Eagle's Medium (DMEM) (Thermo Fisher Scientific) supplemented with 10% fetal bovine serum (FBS). The Hs68 cells were cultivated in an incubator with culture conditions set at 37° C. and 5% CO2. Medium change was performed every two to three days. Cell passage was performed when the cultured cells reached 80%-90% of confluence. • 3.\n(§2) General Procedures: • 1. Determination of transforming growth factor-β (TGF-β) content\n(§3) The TGF-β content was determined using an enzyme-linked immunosorbent assay (ELISA) kit (Cat. No. 559119, BD Biosciences) in accordance with the manufacturer's instructions.\n(§4) Hs68 cells were divided into 25 groups, including one control group, twelve comparative groups (i.e., comparative groups L-1 to L-6 and B-1 to B-6), and twelve experimental groups (i.e., experimental groups L-1 to L-6 and B-1 to B-6). Each group of the Hs68 cells was incubated in a respective well of a 96-well culture plate containing 200 μL of DMEM at 1×10^4 cells/well, followed by cultivation in an incubator (37° C., 5% CO2) for 24 hours. […] The cell culture of the control group received no treatment.\n(§5) After cultivation in an incubator (37° C., 5% CO2) for 24 hours, the respective resultant cell culture was subjected to the determination of TGF-β content according to the method described in section 1 of “General Procedures”.\n(§6) Hs68 cells were divided into 28 groups, including fourteen comparative groups (i.e., comparative groups 1 L to 7 L and 1H to 7H) and fourteen experimental groups (i.e., experimental groups 1 L to 7 L and 1B to 7B). Each group of the Hs68 cells was incubated in a respective well of a 96-well culture plate containing 200 μL of DMEM at 1×10^4 cells/well, followed by cultivation in an incubator (37° C., 5% CO2) for 24 hours.", "units": {"TGF-β content": "pg/mL"}, "values": [
      {"molecule": "N[C@H]1C(O)O[C@H](CO)[C@@H](O)[C@@H]1O", "note": "(stereo partly drawn) [Glucosamine]", "TGF-β content": 51.1},
      {"molecule": "O=C1O[C@H]([C@@H](O)CO)C(O)=C1O", "note": "[Vitamin C]", "TGF-β content": 52.2},
      {"molecule": "Chondroitin", "TGF-β content": 120.5}
    ]},
    {"test_system": "Hs68 cells", "assay": "TGF-β content of Hs68 cells (ELISA)", "type": "cell-based, Human", "conditions": "24 hours, nutritional component only 200 mg/L", "experimental": "as §1, §2, §3, §4, §5, §6", "units": {"TGF-β content": "pg/mL"}, "values": [
      {"molecule": "N[C@H]1C(O)O[C@H](CO)[C@@H](O)[C@@H]1O", "note": "(stereo partly drawn) [Glucosamine]", "TGF-β content": 61.3},
      {"molecule": "O=C1O[C@H]([C@@H](O)CO)C(O)=C1O", "note": "[Vitamin C]", "TGF-β content": 63.1},
      {"molecule": "Chondroitin", "TGF-β content": 128.8}
    ]},
    {"test_system": "Hs68 cells", "assay": "Proliferation of Hs68 cells (MTT, OD570 converted to cell number)", "type": "cell-based, Human", "conditions": "24 hours, nutritional component only 100 mg/L (the reference group of Equation II)", "experimental": "as §1\nas §4, with “3” for “25”, “group” for “group, twelve comparative groups (i.e., comparative groups L-1 to L-6”, “two” for “B-1 to B-6), and twelve”, “L” for “L-1 to L-6”, “B).” for “B-1 to B-6).”\n(§7) After cultivation in an incubator (37° C., 5% CO2) for 24 hours, the respective resultant cell culture was stained with 3-(4,5-Dimethylthiazol-2-yl)-2,5-diphenyltetrazolium bromide (MTT), followed by subjecting the stained cells to determination of absorbance at a wavelength of 570 nm by a spectrophotometer. The OD570 values obtained were subsequently converted to cell numbers based on a correlation curve previously prepared by plotting different known cell numbers of Hs68 cells versus their OD570 values.\nas §6\n(§8) After cultivation in an incubator (37° C., 5% CO2) for 24 hours, the cell number of each group was determined according to the method described in section C of this example. The fold increase of viable cells was calculated using the following Equation (II): C=D/E (II) where C=fold increase of viable cells • D=cell number of respective experimental group or comparative group • E=cell number of corresponding comparative group 1 L, 2 L, 3 L, 4 L, 5 L, 6 L, or 7 L", "values": [
      {"molecule": "N[C@H]1C(O)O[C@H](CO)[C@@H](O)[C@@H]1O", "note": "(stereo partly drawn) [Glucosamine]", "Fold increase of viable Cells": 1.0},
      {"molecule": "O=C1O[C@H]([C@@H](O)CO)C(O)=C1O", "note": "[Vitamin C]", "Fold increase of viable Cells": 1.0},
      {"molecule": "Chondroitin", "Fold increase of viable Cells": 1.0}
    ]},
    {"test_system": "Hs68 cells", "assay": "Proliferation of Hs68 cells (MTT, OD570 converted to cell number)", "type": "cell-based, Human", "conditions": "24 hours, nutritional component only 200 mg/L, relative to 100 mg/L group", "experimental": "as §1\nas §4, with “3” for “25”, “group” for “group, twelve comparative groups (i.e., comparative groups L-1 to L-6”, “two” for “B-1 to B-6), and twelve”, “L” for “L-1 to L-6”, “B).” for “B-1 to B-6).”\nas §7, §6, §8", "values": [
      {"molecule": "N[C@H]1C(O)O[C@H](CO)[C@@H](O)[C@@H]1O", "note": "(stereo partly drawn) [Glucosamine]", "Fold increase of viable Cells": 1.1},
      {"molecule": "O=C1O[C@H]([C@@H](O)CO)C(O)=C1O", "note": "[Vitamin C]", "Fold increase of viable Cells": 1.1},
      {"molecule": "Chondroitin", "Fold increase of viable Cells": 1.1}
    ]}
  ]
}
